Source: patent publication US20040072319A1, “Molecules that modulate ubiquintin-dependent proteolysis and methods for identifying same” (priority 2003, published 2004)
Peptide text beside a SMILES is read from it.

Tests used:
Cdc4 [1] = target: T1, Cdc4 (Saccharomyces cerevisiae, UniProt P07834); experiment: Capture of Cdc4 from baculovirus-infected insect cell lysates by biotinylated peptide; type: binding, yeast; design: made in house; host or cells: Sf9 insect cells infected with recombinant baculovirus (crude lysate); details: insect cells infected with Cdc4 baculovirus
Text: (§1) SCF complexes were purified from SF9 cells infected with recombinant baculoviruses and used in binding assays and ubiquitination reactions essentially as described (7). Gst-Skp1 expressed in BL21 codon plus cells (Stratagene) then purified on glutathione resin was used to capture full Cdc4 from insect cell lysates. Truncated forms of Cdc4 were enriched prior to Gst-Skp1 capture by affinity purification of hexahistidine fusion proteins on a metal chelate column. The Skp1-Cdc4 complexes were released from the Gst moiety by cleavage with TEV protease and further purified by size exclusion chromatography on a Superdex S75 or S200 column. Biotin labeled […]p[…] (SEQ ID NO. 1), […] (SEQ ID NO. 12), and APPLSQEpTFSDLWK (SEQ ID NO. 13) were synthesized by addition of d-biotin (Sigma) with an Fmoc-e-aminocaproic acid (Bachem) spacer to carboxy-terminal peptides. […] Streptavidin-agarose beads (Sigma) were incubated in the presence of biotinylated peptide for 90 min. at 4° C. Beads were washed 3 times and then incubated with lysates from Cdc4 expressing baculovirus infected Sf9 cells. Beads were washed 4 times, after which SDS-PAGE gel loading buffer was added and the beads were boiled for 5 min. Proteins were separated by SDS-PAGE and visualized by silver stain. Peptide out-competition of phosphorylated substrates was carried out with immunopurified Skp1^FLAG-Cdc4 from insect cells, which were incubated with phosphopeptides prior to addition of phospho-Sic1 or phospho-Cyclin E-Cdk2. For kinase inhibition assays, purified recombinant Clb5-Cdc28 complex (30 ng) was incubated with mutant forms of Sic1 (40 ng) and histone H1 (HH1, 2 μg) for 1 h on ice prior to addition of [^32P]-γ-ATP and incubation at 25° C. for 30 min. Samples were separated by SDS-PAGE and visualized by autoradiography.

SCFcdc4 = target: T2, SCFcdc4 (Saccharomyces cerevisiae, UniProt P07834); experiment: In vitro ubiquitination of substrates by SCFcdc4 in presence of peptide; type: biochemical, yeast; details: excess peptide
T2 construct: made in house; host or cells: SF9 cells infected with recombinant baculoviruses
T2 sequence (P52286 whole entry partner, one chain of several): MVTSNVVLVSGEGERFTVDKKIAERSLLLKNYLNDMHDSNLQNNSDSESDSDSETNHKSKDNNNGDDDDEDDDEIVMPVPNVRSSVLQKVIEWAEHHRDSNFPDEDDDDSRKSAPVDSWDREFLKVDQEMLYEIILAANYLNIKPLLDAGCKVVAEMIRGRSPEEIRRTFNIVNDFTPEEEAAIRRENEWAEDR
T2 sequence (Q12018 whole entry partner, one chain of several): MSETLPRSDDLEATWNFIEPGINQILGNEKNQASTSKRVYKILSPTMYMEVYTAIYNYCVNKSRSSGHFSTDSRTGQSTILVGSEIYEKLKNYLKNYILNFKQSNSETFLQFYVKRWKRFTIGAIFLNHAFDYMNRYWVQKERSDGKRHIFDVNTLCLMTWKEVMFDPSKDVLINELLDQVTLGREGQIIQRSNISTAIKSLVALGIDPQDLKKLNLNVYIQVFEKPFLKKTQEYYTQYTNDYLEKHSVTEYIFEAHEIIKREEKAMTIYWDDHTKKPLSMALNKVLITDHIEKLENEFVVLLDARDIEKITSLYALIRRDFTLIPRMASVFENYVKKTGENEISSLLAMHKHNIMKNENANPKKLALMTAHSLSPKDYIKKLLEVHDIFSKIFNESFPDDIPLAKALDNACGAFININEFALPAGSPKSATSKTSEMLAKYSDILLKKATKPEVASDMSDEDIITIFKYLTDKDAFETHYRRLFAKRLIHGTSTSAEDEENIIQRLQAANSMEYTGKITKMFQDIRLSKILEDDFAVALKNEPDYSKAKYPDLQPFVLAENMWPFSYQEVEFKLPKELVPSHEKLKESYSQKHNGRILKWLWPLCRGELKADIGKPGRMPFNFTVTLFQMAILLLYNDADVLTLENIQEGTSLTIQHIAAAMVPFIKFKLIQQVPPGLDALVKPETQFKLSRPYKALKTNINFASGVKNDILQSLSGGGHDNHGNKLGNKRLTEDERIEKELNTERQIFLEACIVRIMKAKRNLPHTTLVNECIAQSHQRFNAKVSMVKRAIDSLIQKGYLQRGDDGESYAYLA
Text: as §1, with “Peptide out-competition of phosphorylated substrates was carried out with immunopurified Skp1^FLAG-Cdc4 from insect cells, which were incubated with phosphopeptides prior to addition of phospho-Sic1 or phospho-Cyclin E-Cdk2. For kinase inhibition assays, purified recombinant Clb5-Cdc28 complex (30 ng) was incubated with mutant forms of Sic1 (40 ng) and histone H1 (HH1, 2 μg) for 1 h on ice prior to addition of [^32P]-γ-ATP and incubation at 25° C. for 30 min. Samples were separated by SDS-PAGE and visualized by autoradiography.” left out

Cdc4 [2] = target: T1, Cdc4; experiment: Fluorescence polarization equilibrium binding of peptides to Cdc4; design: made in house; host or cells: Cdc4: baculovirus-infected insect (Sf9) cells; Gst-Skp1: E. coli BL21 codon plus; species or system yeast; details: Hill plot of peptide binding to Cdc4
Experimental: Equilibrium binding constant determination was carried out using fluorescence polarization on a Beacon 2000 Fluorescence Polarization System (Pan Vera, Wis.) equipped with a 100 μL sample chamber. Fluorescein-labeled probes were prepared through the reaction of carboxyterminal-peptides with 5-(and-6)-carboxyfluorescein succinimidyl ester (Molecular Probes), purified by reverse-phase HPLC, and confirmed by mass spectrometry. Binding studies were conducted with 5 nM fluorescein-labeled probe dissolved in PBS containing 100 μg/ml BSA and 1 mM dithiothreitol. Reaction mixtures were allowed to equilibrate for 10 minutes at room temperature prior to each measurement. All fluorescence polarization measurements were conducted at 22° C.

Cdc4-Skp1 complexes = target: T3, Cdc4-Skp1 complexes (Saccharomyces cerevisiae, UniProt P07834); experiment: Peptide out-competition of phosphorylated substrates binding to Cdc4-Skp1; design: species or system yeast; details: peptide 3, 17, 68 μM in FIG. 6f
T3 construct: made in house; host or cells: insect cells (baculovirus)
T3 sequence (P52286 whole entry partner, one chain of several): as the sequence (P52286 whole entry partner, one chain of several) above
Text: as §1

Cdc4 [3] = target: T4, Cdc4 (Saccharomyces cerevisiae, UniProt P07834); experiment: Capture of Cdc4 from baculovirus-infected insect cell lysates by biotinylated peptide; type: binding, yeast; details: insect cells infected with Cdc4 baculovirus
T4 construct: made in house; host or cells: Sf9 insect cells infected with recombinant baculovirus (crude lysate)
T4 sequence (P07834 whole entry, looked up): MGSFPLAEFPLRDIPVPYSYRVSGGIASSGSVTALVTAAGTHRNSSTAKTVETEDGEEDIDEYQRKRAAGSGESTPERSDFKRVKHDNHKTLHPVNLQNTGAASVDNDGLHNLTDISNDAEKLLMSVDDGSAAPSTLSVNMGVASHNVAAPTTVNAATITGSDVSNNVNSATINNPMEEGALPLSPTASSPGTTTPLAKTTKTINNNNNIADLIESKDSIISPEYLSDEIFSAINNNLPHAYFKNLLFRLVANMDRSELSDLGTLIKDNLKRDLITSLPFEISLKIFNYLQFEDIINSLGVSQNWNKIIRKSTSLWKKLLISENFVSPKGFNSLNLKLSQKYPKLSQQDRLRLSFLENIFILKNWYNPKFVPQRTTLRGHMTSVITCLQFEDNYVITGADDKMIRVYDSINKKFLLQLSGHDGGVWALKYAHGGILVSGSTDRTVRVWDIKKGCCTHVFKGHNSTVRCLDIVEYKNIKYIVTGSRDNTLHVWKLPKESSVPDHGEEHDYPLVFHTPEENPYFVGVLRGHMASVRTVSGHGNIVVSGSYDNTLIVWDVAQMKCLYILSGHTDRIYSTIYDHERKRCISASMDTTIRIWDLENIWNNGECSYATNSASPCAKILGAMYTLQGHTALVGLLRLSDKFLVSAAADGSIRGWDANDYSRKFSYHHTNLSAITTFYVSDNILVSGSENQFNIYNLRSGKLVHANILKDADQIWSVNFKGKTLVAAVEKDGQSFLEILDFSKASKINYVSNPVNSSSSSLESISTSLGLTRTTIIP
Text: as §1, with “Peptide out-competition of phosphorylated substrates was carried out with immunopurified Skp1^FLAG-Cdc4 from insect cells, which were incubated with phosphopeptides prior to addition of phospho-Sic1 or phospho-Cyclin E-Cdk2. For kinase inhibition assays, purified recombinant Clb5-Cdc28 complex (30 ng) was incubated with mutant forms of Sic1 (40 ng) and histone H1 (HH1, 2 μg) for 1 h on ice prior to addition of [^32P]-γ-ATP and incubation at 25° C. for 30 min. Samples were separated by SDS-PAGE and visualized by autoradiography.” left out

[4] = target: Cdc4 (yeast F-box protein, recombinant, expressed in baculovirus-infected insect cells) (yeast) (UniProt P07834); experiment: equilibrium binding
Skp1-Cdc4 complex [5] = target: T5, Skp1-Cdc4 complex (yeast, UniProt P07834 1-779; P52286 1-194, limits assumed); experiment: fluorescence polarization, 5 nM fluorescein-labeled peptide, Cdc4/Skp1 titrated
T5 construct: Purified complex (Gst removed by TEV, size exclusion) for fluorescence polarization and SPOTS arrays; also called Cdc4/Skp1; cdc4/skp1 complex

Skp1-Cdc4 complex [6] = target: T5, Skp1-Cdc4 complex; experiment: fluorescence polarization
[7] = target: Cdc4 (yeast F-box protein, recombinant, expressed in baculovirus-infected insect cells) (yeast) (UniProt P07834); experiment: equilibrium binding, fluorescence polarization
[8] = target: Cdc4 (yeast F-box protein, recombinant, expressed in baculovirus-infected insect cells) (yeast) (UniProt P07834); experiment: equilibrium binding (Table in FIG. 3)
[9] = target: T6, Cdc4 (yeast F-box protein, recombinant, expressed in baculovirus-infected insect cells) (yeast, UniProt P07834 1-779); experiment: capture of Gst-Sic1 on Cdc4^FLAG resin, anti-Sic1 blot
T6 construct: also called Cdc4^FLAG
T6 sequence (looked up): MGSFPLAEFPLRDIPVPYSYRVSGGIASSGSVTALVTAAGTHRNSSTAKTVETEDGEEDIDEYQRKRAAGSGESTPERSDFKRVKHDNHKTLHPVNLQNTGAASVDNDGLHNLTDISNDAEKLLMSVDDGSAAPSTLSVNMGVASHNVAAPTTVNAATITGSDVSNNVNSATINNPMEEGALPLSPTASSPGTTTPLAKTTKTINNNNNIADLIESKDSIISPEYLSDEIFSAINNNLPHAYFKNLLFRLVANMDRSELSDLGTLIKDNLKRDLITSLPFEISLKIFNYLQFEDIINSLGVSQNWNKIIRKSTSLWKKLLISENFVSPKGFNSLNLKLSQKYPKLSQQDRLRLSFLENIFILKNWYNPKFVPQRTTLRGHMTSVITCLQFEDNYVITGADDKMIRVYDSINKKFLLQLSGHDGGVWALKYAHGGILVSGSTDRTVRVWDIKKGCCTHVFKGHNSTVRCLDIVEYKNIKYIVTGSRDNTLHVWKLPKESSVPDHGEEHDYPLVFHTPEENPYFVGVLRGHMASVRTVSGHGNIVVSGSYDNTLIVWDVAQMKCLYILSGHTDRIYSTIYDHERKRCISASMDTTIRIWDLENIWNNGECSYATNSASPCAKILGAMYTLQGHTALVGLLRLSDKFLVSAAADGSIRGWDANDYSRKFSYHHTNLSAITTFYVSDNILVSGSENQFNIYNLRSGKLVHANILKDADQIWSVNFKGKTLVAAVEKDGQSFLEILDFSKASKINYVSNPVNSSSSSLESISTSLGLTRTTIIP

`CC(C)C[C@H](NC(=O)CNC(=O)[C@H](CO)NC(=O)[C@@H]1CCCN1C(=O)[C@H](CC(C)C)NC(=O)[C@@H]1CCCN1C(=O)[C@H](CO)NC(=O)[C@H](C)N)C(=O)N[C@@H](CC(C)C)C(=O)N[C@H](C(=O)N1CCC[C@H]1C(=O)N1CCC[C@H]1C(=O)N[C@@H](CCC(N)=O)C(=O)N[C@@H](CO)C(=O)NCC(=O)N[C@@H](CCCCN)C(=O)N[C@@H](CCCCN)C(=O)N[C@@H](CCC(N)=O)C(=O)N[C@@H](CO)C(=O)O)[C@@H](C)OP(=O)(O)O` [CycE-19mer, ASPLPSGLLpTPPQSGKKQS] (HELM PEPTIDE1{A.S.P.L.P.S.G.L.L.[C[C@@H](OP(=O)(O)O)[C@H](N[*:1])C(=O)[*:2]].P.P.Q.S.G.K.K.Q.S}$$$$V2.0) was tested, and the “capture of Cdc4 from lysates by biotinylated peptide” value (from here on “capture of Cdc4 from lysates”) (Cdc4 [1]; listed as CycE19-pT380) was “able to capture Cdc4”, the “capture of Cdc4 from lysates” value (Cdc4 [1]; listed as CycE^19-pT380) was “captures recombinant Cdc4” and the “capture of Cdc4 from lysates” value (Cdc4 [1]; listed as cycE19P) was “capture of Cdc4”. The “capture of Cdc4 from lysates” value (Cdc4 [1]; listed as cycEpT19mer) was “able to precipitate cdc4”, the “block of ubiquitination of SCFcdc4 substrates” value (SCFcdc4; listed as CycE19-pT380) was “able to out-compete” and the “block of ubiquitination of SCFcdc4 substrates” value (SCFcdc4; listed as cycE19P) was “blocked”. The Hill coefficient (Cdc4 [2]) was 0.99, the “competition with substrates (Sic1, cyclin E1, Far1) for binding to Cdc4” value (from here on “competition with substrates”) (Cdc4-Skp1 complexes; listed as CycE19-pT380) was “able to out-compete” and the “competition with substrates” value (Cdc4-Skp1 complexes; listed as CycE^19-pT380) was “out-competes binding of Sic1 and cyclin E1”. The “competition with substrates” value (Cdc4-Skp1 complexes; listed as cycE19P) was “able to compete”, the “competition with substrates” value (Cdc4-Skp1 complexes; listed as cycEpT) was “inhibits the interaction” and the “competition with substrates” value (Cdc4-Skp1 complexes; listed as cyclin E phosphopeptide) was “competed”.

In the case of “ASPLPSGLLTPPQSGKKQS [unphosphorylated peptide, biotin labeled unphosphorylated cyclin E1 19 residue control peptide, reference compound]”, the “capture of Cdc4 from lysates” value (Cdc4 [3]; listed as non-phosphorylated CycE^19-pT380 peptide) is reported as “does not” and the “capture of Cdc4 from lysates” value (Cdc4 [3]; listed as unphosphorylated version of the peptide) is reported as “failed to interact with cdc4”.

Cdc 16 peptide LSKNLLpTPQEEWD was tested, and the Kd [4] was 750 nM and the Kd (Skp1-Cdc4 complex [5]) was 900 nM.

With CycEpS-9mer GLLpSPPQSG (peptide) the fold lower affinity (against the phosphothreonine peptide) (Skp1-Cdc4 complex [6]) was 6 fold and the fold lower affinity (against the phosphothreonine cyclin E peptide) [7] was 6 fold.

Gcn4-9mer FLPpTPVLED (peptide) was tested, and the Kd [8] was 675 nM and the Kd (Skp1-Cdc4 complex [5]) was 880 nM.

B1: Sic1 6m (Sic1^9m with T33, T45 and S76 restored), Gst fusion (other, yeast, UniProt P38634 1-284, looked up)
chain: MAPSAPPRSRGTRYLAQPSGNTSSSALMQGQKTPQKPSQNLVPVTPSTTKSFKNAPLLAPPNSNMGMTAPFNGLTSPQRAPFPKSSVKRTLFQFESHDNGTVREEQEPLGRVNRILFPTQQNVDIDAAEEEEEGEVLLPPSRPTSARQLHLSLERDEFDQTHRKKIIKDVPGAPSDKVITFELAKNWNNNVPKNDARSQESEDEEDIIINPVRVGKNPFASDELVTQEIRNERKRAMLRENPDIEDVITYVNKKGEVVEKRRLTDEEKRRFKPKALFQSRDQEH
modifications: treated with Cln2-Cdc28 kinase
notes: not shown: glutathione S-transferase (Gst) fusion moiety of pGEX-3x
B1: no binding [9].

B2: Sic1 7m (Sic1^9m with T45 and S76 restored), Gst fusion (other, yeast, UniProt P38634 1-284, looked up)
chain: MAPSAPPRSRGTRYLAQPSGNTSSSALMQGQKAPQKPSQNLVPVTPSTTKSFKNAPLLAPPNSNMGMTAPFNGLTSPQRAPFPKSSVKRTLFQFESHDNGTVREEQEPLGRVNRILFPTQQNVDIDAAEEEEEGEVLLPPSRPTSARQLHLSLERDEFDQTHRKKIIKDVPGAPSDKVITFELAKNWNNNVPKNDARSQESEDEEDIIINPVRVGKNPFASDELVTQEIRNERKRAMLRENPDIEDVITYVNKKGEVVEKRRLTDEEKRRFKPKALFQSRDQEH
modifications: treated with Cln2-Cdc28 kinase
notes: as for B1
B2: no binding [9].
